These results are taken from patent US6399782B1, “Benzimidazole inhibitors of fructose 1,6-bisphosphatase” (Metabasis Therapeutics, Inc., priority 1997, dated 2002).

The target of one series is T1, mouse liver FBPase (Mus musculus, UniProt Q9QXD6).
T1 construct: This partially purified fraction was used for enzyme assays; from tissue; host or cells: mouse liver, 45-75% ammonium sulfate fraction
T1 sequence (Q9QXD6 2-338 limits assumed): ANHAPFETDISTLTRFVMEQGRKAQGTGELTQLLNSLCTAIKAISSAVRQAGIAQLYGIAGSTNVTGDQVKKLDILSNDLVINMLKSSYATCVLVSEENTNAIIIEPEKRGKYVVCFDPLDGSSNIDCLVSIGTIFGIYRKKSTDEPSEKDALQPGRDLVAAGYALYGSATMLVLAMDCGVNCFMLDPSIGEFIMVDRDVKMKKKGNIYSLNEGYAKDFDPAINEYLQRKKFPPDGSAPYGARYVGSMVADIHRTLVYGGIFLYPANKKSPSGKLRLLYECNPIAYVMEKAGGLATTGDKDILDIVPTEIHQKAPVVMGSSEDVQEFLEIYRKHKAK
The experiment in a line: Inhibition of mouse liver FBPase. Type of series: biochemical. Particulars: partially purified mouse liver fraction. The protocol:
Enzymatic activity was measured spectrophotometrically in reactions that coupled the formation of product (fructose 6-phosphate) to the reduction of dimethylthiazoldiphenyltetrazolium bromide (MTT) via NADP and phenazine methosulfate (PMS), using phosphoglucose isomerase and glucose 6-phosphate dehydrogenase as the coupling enzymes. Reaction mixtures (200 μl) were made up in 96-well microtitre plates, and consisted of 50 mM Tris-HCl, pH 7.4, 100 mM KCl, 5 mM EGTA, 2 mM MgCl2, 0.2 mM NADP, 1 mg/ml BSA, 1 mM MTT, 0.6 mM PMS, 1 unit/mL phosphoglucose isomerase, 2 units/mL glucose 6-phosphate dehydrogenase, and 0.150 mM substrate (fructose 1,6-bisphosphate). Inhibitor concentrations were varied from 0.01 μM to 10 μM.
Mouse liver FBPase was obtained by homogenizing freshly isolated mouse liver in 100 mM Tris-HCl buffer, pH 7.4, containing 1 mM EGTA, and 10% glycerol. […] This fraction was redissolved in the homogenization buffer and desalted on a PD-10 gel filtration column (Biorad) eluted with same. This partially purified fraction was used for enzyme assays. Both rat liver and mouse liver FBPase were assayed as described for human liver FBPase.

The subject of another series is rat hepatocytes. In words: Inhibition of gluconeogenesis in rat hepatocytes. Type of series: cell-based. The settings on record: Hepatocyte; glucose production from lactate/pyruvate, isolated rat hepatocytes, 1 hour. On the procedure: Hepatocytes were prepared from overnight fasted Sprague-Dawley rats (250-300 g) according to the procedure of Berry and Friend (Berry, M. N., Friend, D. S., 1969, J. Cell. Biol. 43, 506-520) as modified by Groen (Groen, A. K., Sips, H. J., Vervoorn, R. C., Tager, J. M., 1982, Eur. J. Biochem. 122, 87-93). Hepatocytes (75 mg wet weight/mL) were incubated in 1 ml Krebs-bicarbonate buffer containing 10 mM Lactate, 1 mM pyruvate, 1 mg/mL BSA, and test compound concentrations from 1 to 500 μM. Incubations were carried out in a 95% oxygen, 5% carbon dioxide atmosphere in closed, 50-mL Falcon tubes submerged in a rapidly shaking water bath (37° C.). After 1 hour, an aliquot (0.25 mL) was removed, transferred to an Eppendorf tube and centrifuged. 50 μL of supernatant was then assayed for glucose content using a Sigma Glucose Oxidase kit as per the manufacturer's instructions.

Series [1] in a line: Estimation of the oral bioavailability of prodrugs of phosphonic acids. Type of series: in vivo. The settings on record: rat; for % Oral bioavailability: prodrug by oral gavage approximately 20 or 40 mg/kg parent equivalents, urinary recovery of parent vs i.v. parent. On the procedure:
Prodrugs were dissolved in 10% ethanol/90% polyethylene glycol (mw 400) and administered by oral gavage at doses of approximately 20 or 40 mg/kg parent compound equivalents to 6-hour fasted, Sprague Dawley rats (220-240 g). The rats were subsequently placed in metabolic cages and urine was collected for 24 hours. The quantity of parent compound excreted into urine was determined by HPLC analysis. An ODS column eluted with a gradient from potassium phosphate buffer, pH 5.5 to acetonitrile was employed for these measurements. Detection was at 310-325 nm. […] Parent compounds were typically dissolved in dimethyl sulfoxide, and administered via the tail vein in animals that were briefly anesthetized with halothane.

For the next series, the target named is T2, human liver FBPase (Homo sapiens, UniProt P09467).
T2 construct: made in house; host or cells: E. coli BL21
T2 sequence (P09467 2-338 limits assumed): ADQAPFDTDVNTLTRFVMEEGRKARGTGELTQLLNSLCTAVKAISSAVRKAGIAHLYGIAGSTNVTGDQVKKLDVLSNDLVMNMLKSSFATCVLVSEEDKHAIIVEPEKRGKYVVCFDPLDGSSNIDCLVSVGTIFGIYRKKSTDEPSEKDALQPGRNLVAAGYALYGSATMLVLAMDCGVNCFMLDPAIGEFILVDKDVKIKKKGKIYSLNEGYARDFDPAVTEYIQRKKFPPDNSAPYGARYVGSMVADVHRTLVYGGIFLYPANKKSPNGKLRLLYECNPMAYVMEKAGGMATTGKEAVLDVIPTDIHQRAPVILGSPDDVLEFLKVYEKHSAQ
In words: Inhibition of human liver FBPase. Type of series: biochemical.

A further series deals with T3, hlFBPase (Homo sapiens, UniProt P09467).
T3 construct: made in house; host or cells: E. coli BL21
T3 sequence (P09467 2-338 limits assumed): T2 sequence (P09467 2-338 limits assumed)
In words: AMP site binding (displacement of radiolabeled AMP). On the procedure: To determine whether compounds bind to the allosteric AMP binding site of hlFBPase, the enzyme was incubated with radiolabeled AMP in the presence of a range of test compound concentrations. The reaction mixtures consisted of […] ^3H-AMP (54 mCi/mmol) and […] test compound in 25 mM Tris-HCl, pH 7.4, 100 mM KCl and 1 mM MgCl2. 1.45 mg of homogeneous FBPase (±1 nmole) was added last. After a 1 minute incubation, AMP bound to FBPase was separated from unbound AMP by means of a centrifugal ultrafiltration unit (“Ultrafree-MC”, Millipore) used according to the instructions of the manufacturer. The radioactivity in aliquots (100 μL) of the upper compartment of the unit (the retentate, which contrains enzyme and label) and the lower compartment (the filtrate, which contains unbound label) were quantified using a Beckman liquid scintillation counter. The amount of AMP bound to the enzyme was estimated by comparing the counts in the filtrate (the unbound label) to the total counts in the retentate.

Protocol for human liver FBPase: Enzymatic activity was measured spectrophotometrically in reactions that coupled the formation of product (fructose 6-phosphate) to the reduction of dimethylthiazoldiphenyltetrazolium bromide (MTT) via NADP and phenazine methosulfate (PMS), using phosphoglucose isomerase and glucose 6-phosphate dehydrogenase as the coupling enzymes. Reaction mixtures (200 μl) were made up in 96-well microtitre plates, and consisted of 50 mM Tris-HCl, pH 7.4, 100 mM KCl, 5 mM EGTA, 2 mM MgCl2, 0.2 mM NADP, 1 mg/ml BSA, 1 mM MTT, 0.6 mM PMS, 1 unit/mL phosphoglucose isomerase, 2 units/mL glucose 6-phosphate dehydrogenase, and 0.150 mM substrate (fructose 1,6-bisphosphate). Inhibitor concentrations were varied from 0.01 μM to 10 μM. Reactions were started by the addition of 0.002 units of pure hlFBPase and were monitored for 7 minutes at 590 nm in a Molecular Devices Plate Reader (37° C.).

As for `CC(C)Cn1c(-c2ccc(P(=O)(O)O)o2)nc2c(N)c(F)cc(CCCCBr)c21` [Compound 12.82, 4-Amino-5-fluoro-7-(4-bromobutyl)-1-isobutyl-2-(2-phosphono-5-furanyl)benzimidazole], the melting point is 200 to 220 °C (dec.). Moreover, the IC50 against mouse liver FBPase is 300 nM. Also, the IC50 in the series with rat hepatocytes was 2200 nM.

Take `CC(C)Cn1c(-c2ccc(P(=O)(O)O)o2)nc2c(N)c(F)cc(CCCBr)c21` [Compound 12.80, 4-Amino-5-fluoro-7-(3-bromopropyl)-1-isobutyl-2-(2-phosphono-5-furanyl)benzimidazole]: the melting point was 190 to 195 °C (dec.). Besides, at mouse liver FBPase, it took 300 nM to reach half-maximal inhibition (IC50). Also, in the series with rat hepatocytes, the IC50 turned out to be 1600 nM.

For `O=C(NCP(=O)(O)O)c1nc2ccccc2[nH]1` [Compound 13.66, N-(Phosphonomethyl)benzimidazole-2-carboxamide], the melting point is 258 to 260 °C. Also, the half-inhibitory concentration (IC50) against mouse liver FBPase is more than 20000 nM.

In the case of `CC(C)(C)Cn1c(-c2ccc(P(=O)(O)O)o2)nc2c(N)ncnc21` [Compound B], the “% of intravenous dose recovered in urine” value in series [1] (intravenous approximately 10 mg/kg, 24 hour urine) is 76.8%.

In the case of `CC(=O)OCC1COP(=O)(c2ccc(-c3nc4ccc(Cl)cc4n3CC(C)C)o2)OC1` (stereo not drawn) [Compound 31.14, 6-Chloro-1-isobutyl-2-{5-[2-(acetoxymethyl)-propan-1,3-yl]phosphono-2-furanyl}benzimidazole], the “% Oral bioavailability” value in series [1] is 12.5%.

On to `CCc1ccc2c(nc(-c3ccc(P(=O)(O)O)o3)n2CC(C)C)c1N` [Compound 12.52, 4-Amino-5-ethyl-1-isobutyl-2-(2-phosphono-5-furanyl)benzimidazole], for which the melting point lay in the range of 220 to 225 °C. The midpoint of inhibition against mouse liver FBPase, the IC50, lay at 780 nM. The “inhibition of human liver FBPase activity (FIG. 2)” value against human liver FBPase (result in words) is on record as “inhibit human liver FBPase activity in vitro in a dose dependent manner”.

The compound `Cc1c(Cl)cc2c(nc(-c3ccc(P(=O)(O)O)o3)n2CC2CC2)c1C` [Compound 13.61, 6-Chloro-4,5-dimethyl-1-cyclopropylmethyl-2-(2-phosphono-5-furanyl)benzimidazole] yielded a melting point of 219 to 220 °C. The compound further yielded an IC50 at mouse liver FBPase of more than 20000 nM.

Take “4-Amino-5-fluoro-7-bromo-1-isobutyl-2-(1-methoxymethyl-3-bispivaloyloxymethylphosphonate)benzimidazole [Compound 18.7]”: the “% Oral bioavailability” value in series [1] is on record as 6.9%.

For the compound `CC(C)(C)Cn1c(-c2ccc(P(=O)(OCOC(=O)C(C)(C)C)OCOC(=O)C(C)(C)C)o2)nc2c(N)ncnc21` [Compound C], in series [1], the “% Oral bioavailability” value is 5.3%.

As for `COC(=O)OCC1COP(=O)(c2ccc(-c3nc4ccc(Cl)cc4n3CC(C)C)o2)OC1` (stereo not drawn) [Compound 31.15, 6-Chloro-1-isobutyl-2-{5-[2-(methoxycarbonyloxymethyl)-propan-1,3-yl]phosphono-2-furanyl}benzimidazole], the “% Oral bioavailability” value in series [1] is 14.1%.

Take `COC(=O)c1cccc(Cn2c(-c3ccc(P(=O)(O)O)o3)nc3c(N)cccc32)c1` [Compound 12.6, 4-Amino-1-(3-carbomethoxybenzyl)-2-[2-(5-phosphono)furanyl]benzimidazole]: the melting point is 198 to 202 °C. At mouse liver FBPase, this compound gave a half-maximal inhibitory concentration (IC50) of more than 20000 nM.

As to `CC(C)Cn1c(-c2ccc(P(=O)(O)O)o2)nc2c(N)c(F)cc(CCCO)c21` [Compound 12.79, 4-Amino-7-(propane-3-ol)-5-fluoro-1-isobutyl-2-(2-phosphono-5-furanyl)benzimidazole], the melting point lay within 170 to 173 °C. Moreover, at mouse liver FBPase, half-maximal inhibition (IC50) required 720 nM. Also, the IC50 in the series with rat hepatocytes was 1000 nM.

Regarding `CC(C)Cn1c(-c2ccc(P3(=O)OCC(CO)CO3)o2)nc2ccc(Cl)cc21` (stereo not drawn) [Compound 31.13, 6-Chloro-1-isobutyl-2-{5-[2-(hydroxymethyl)-propan-1,3-yl]phosphono-2-furanyl}benzimidazole], in series [1], the “% Oral bioavailability” value is 10.9%.

In the case of `CC(C)Cn1c(-c2ccc(P(=O)(O)O)o2)nc2c(N)c(F)cc(Cl)c21` [Compound 12.54, 4-Amino-5-fluoro-7-chloro-1-isobutyl-2-(2-phosphono-5-furanyl)benzimidazole], the melting point is 220 to 225 °C. For the same compound, at mouse liver FBPase, half-maximal inhibition (IC50) required 1070 nM.

Consider `CC(C)Cn1c(-c2ccc(P(=O)(O)O)o2)nc2c(O)cccc21` [Compound 13.21, 4-Hydroxy-1-isobutyl-2-(2-phosphono-5-furanyl)benzimidazole], for which the melting point lay in the range of 244 to 245 °C. The compound further displayed an IC50 at mouse liver FBPase of more than 20000 nM.

Take `CC(C)C(=O)OCOP(=O)(OCOC(=O)C(C)C)c1ccc(-c2nc3c(N)ncnc3n2CC(C)(C)C)o1` [Compound A]: the “oral bioavailability (calculated 6.2/76.8)” value in series [1] (oral approximately 20 mg/kg) is reported as “approximately 8%”. For the same compound, the “% of oral dose recovered in urine” value in series [1] (oral approximately 20 mg/kg, parent compound in 24 hour urine) is given as 6.2%.

As for `CC(C)Cn1c(COCP(=O)(O)O)nc2c(N)c(F)cc(Br)c21` [Compound 15.1, 4-Amino-5-fluoro-7-bromo-1-isobutyl-2-(1-methoxymethyl-3-phosphono)benzimidazole], the melting point is 200 to 202 °C (dec.). The same compound displayed an IC50 on mouse liver FBPase of 1500 nM. Also, it took 16000 nM to reach half-maximal inhibition with rat hepatocytes (IC50).

Regarding `NC(=O)c1ncn([C@@H]2O[C@H](COP(=O)(O)O)[C@@H](O)[C@H]2O)c1N` [ZMP, 5-aminoimidazole-4-carboxamide riboside monophosphate, reference compound], the EC50 on hlFBPase (displacement of 3H-AMP from hlFBPase, read-out: ED50 for AMP displacement) is 250000 nM. On hlFBPase (result in words), the “displacement of AMP from human liver FBPase (FIG. 3)” value is on record as “displaced AMP from human liver FBPase in a dose dependent manner”. Also, the IC50 at human liver FBPase (values in text, read-out: hlFBPase IC50) is 12000 nM.
